{
  "source": "patent US7462605B2",
  "about": "“Phosphoramidate compounds and methods of use” (Celmed Oncology (USA), Inc., priority 2002, dated 2008)",
  "key": {"[1]": {"test_system": "H630 colon cancer cells, TDX selection", "assay": "alamarBlue cytotoxicity, H630 TDX-selected", "format": "cell-based, human", "conditions": "Drug Selection TDX, read-out: NB1011-IC50", "protocol": "(§1) Growth Inhibition Studies. Cells growing exponentially were transferred to 384-well flat bottom tissue culture plates. All cell types were plated at a density of 500 cells per well in 25 μL of complete medium (RPMI 1640+10% fetal bovine serum+antibiotics/antimycotics). After 24 hours (day 0), 25 μL of complete medium containing the experimental compounds over the dose range of 10^ñ3 to 10^ñ10 M were added in triplicate. […] 5 μL of the redox indicator, alamarBlue, was added to each well (10% v/v). After 4 hours incubation at 37° C., fluorescence was monitored at 535 nm excitation and 595 nm emission.\n(§2) Concentration vs. relative fluorescence units (RFU) were plotted, and sigmoid curves were fit using the Hill equation.\n(§3) Cells were grown and characterized as described above. TS expression level is relative to CCD18co, a normal colon epithelial cell line. Tritium release is background substracted as described in Methods. ND=Not detectable above background."}, "[2]": {"test_system": "PC3 (Prostate) tumor cells", "assay": "alamarBlue growth inhibition, PC3", "format": "cell-based, human", "conditions": "120 hours", "protocol": "as §1, §2"}, "[3]": {"test_system": "PANC1 (Pancreas) tumor cells", "assay": "alamarBlue growth inhibition, PANC1", "format": "cell-based, human", "conditions": "120 hours", "protocol": "as §1, §2"}, "[4]": {"test_system": "MRC9 (Lung) normal cells", "assay": "alamarBlue growth inhibition, MRC9", "format": "cell-based, human", "conditions": "120 hours", "protocol": "as §1, §2"}, "[5]": {"test_system": "HCTC (Colon) tumor cells", "assay": "alamarBlue growth inhibition, HCTC", "format": "cell-based, human", "conditions": "120 hours", "protocol": "as §1, §2"}, "[6]": {"test_system": "H630R10 5FU-resistant colon tumor cells", "assay": "alamarBlue growth inhibition, H630R10", "format": "cell-based, human", "protocol": "as §1, §2"}, "[7]": {"test_system": "NCI H520 (Lung) tumor cells", "assay": "alamarBlue growth inhibition, NCI H520", "format": "cell-based, human", "conditions": "120 hours", "protocol": "as §1, §2"}, "[8]": {"test_system": "MCF7 TDX (Tomudex-resistant MCF7 breast cancer cells)", "assay": "alamarBlue cytotoxicity, MCF7 TDX", "format": "cell-based, human", "protocol": "as §1, §2\nReversal of Resistance. The origin and characteristics of the human breast cancer MCF7 TDX cell line have been previously described (Drake, et al. (1996)). Briefly, MCF-7 breast cancer cells were selected in vitro for resistance to Tomudex by continuous exposure to stepwise increases in TDX concentrations up to 2.0 μM. […] After a dramatic initial cell killing effect, resistant colonies emerged, and vigorously growing monolayers were formed. TS protein level and IC50 for 5-FU, TDX, and NB1011 were determined for the resultant MCF7 TDX/1011 cell line as described in above by western blot and the alamarBlue cytotoxicity assay, respectively."}, "[9]": {"test_system": "MDAMB361 (Breast) tumor cells", "assay": "alamarBlue growth inhibition, MDAMB361", "format": "cell-based, human", "conditions": "120 hours", "protocol": "as §1, §2"}, "[10]": {"test_system": "N1S1 cells, 5FU selection", "assay": "alamarBlue cytotoxicity, N1S1 5FU-selected", "format": "cell-based", "conditions": "N1S1, Drug Selection 5FU; read-out: NB1011-IC50", "protocol": "as §1, §2, §3"}, "[11]": {"test_system": "COLO205 (Colon) tumor cells", "assay": "alamarBlue growth inhibition, COLO205", "format": "cell-based, human", "conditions": "120 hours", "protocol": "as §1, §2"}, "[12]": {"test_system": "N1S1 cells", "assay": "alamarBlue cytotoxicity, N1S1 parental", "format": "cell-based", "conditions": "N1S1, Drug Selection None; read-out: NB1011-IC50", "protocol": "as §1, §2, §3"}, "[13]": {"test_system": "SKHEP1 (Liver) tumor cells", "assay": "alamarBlue growth inhibition, SKHEP1", "format": "cell-based, human", "conditions": "120 hours", "protocol": "as §1, §2"}, "[14]": {"test_system": "W138 (Lung) normal cells", "assay": "alamarBlue growth inhibition, W138", "format": "cell-based, human", "conditions": "120 hours", "protocol": "as §1, §2"}, "[15]": {"test_system": "RKO colon cancer cells, TDX selection", "assay": "alamarBlue cytotoxicity, RKO TDX-selected", "format": "cell-based, human", "conditions": "Drug Selection TDX, read-out: NB1011-IC50", "protocol": "as §1, §2, §3"}, "[16]": {"test_system": "COLO320 (Colon) tumor cells", "assay": "alamarBlue growth inhibition, COLO320", "format": "cell-based, human", "conditions": "120 hours", "protocol": "as §1, §2"}, "[17]": {"test_system": "normal and tumor cell types", "assay": "cells", "conditions": "for IC50: read-out: IC50 (μM), Average", "protocol": "Growth Inhibition Studies. Cells growing exponentially were transferred to 384-well flat bottom tissue culture plates. All cell types were plated at a density of 500 cells per well in 25 μL of complete medium (RPMI 1640+10% fetal bovine serum+antibiotics/antimycotics). After 24 hours (day 0), 25 μL of complete medium containing the experimental compounds over the dose range of 10^ñ3 to 10^ñ10 M were added in triplicate. Drug exposure time was 120 hours (day 5), after which growth inhibition was assayed. 5 μL of the redox indicator, alamarBlue, was added to each well (10% v/v). After 4 hours incubation at 37° C., fluorescence was monitored at 535 nm excitation and 595 nm emission.\nas §2\nAssays were carried out as described in Methods, above. Therapeutic index is calculated as the ratio of the average IC50 for normal cells to the average IC50 for tumor cells. All assays were done at least three times."}, "[18]": {"test_system": "CCD18co normal colon epithelial cells", "assay": "alamarBlue growth inhibition, CCD18co", "format": "cell-based, human", "protocol": "as §1, §2"}, "[19]": {"test_system": "HEPG2 (Liver) tumor cells", "assay": "alamarBlue growth inhibition, HEPG2", "format": "cell-based, human", "conditions": "120 hours", "protocol": "as §1, §2"}, "[20]": {"test_system": "collagen induced arthritis", "assay": "Collagen induced arthritis in DBA/1 mice", "format": "in vivo, mouse", "conditions": "vs saline-treated control; NB1011 2.5 mg per day intraperitoneal", "method": "Arthritis was induced in male DBA/1 mice (8-10 weeks old) by intradermal injection of bovine type II collagen, purified in-house at the Kennedy Institute of Rheumatology as previously described (Miller, E. J. et al. (1972)). Collagen was administered in complete Freund's adjuvant (Difco, Detroit, Mich.). Onset of arthritis is expected to be variable. Arthritis onset is considered to occur on the day that swelling and/or erythema were observed. Clinical score is a composite of disease severity and the number of limbs affected, and is monitored daily from onset of disease and used as an assessment of disease progress. An example for scoring is: 0, Normal; 1, slight swelling with erythema; 2, pronounced swelling; 3, joint rigidity. In addition, the extent of paw swelling reflects the degree of edema in affected limbs.\nNB1011 was administered daily by intraperitoneal administration at 2.5 mg total dose per day.\nFollowing immunization with collagen, mice were maintained until a significant clinical score for disease progression was achieved (between 2.5 and 3.5). Mice were then treated with control saline injections, NB1011, or with anti-TNF antibody as a positive control. […] Paw swelling is an alternative measure of CIA disease severity."}, "[21]": {"test_system": "TSL/HT1080 cells", "assay": "alamarBlue cytotoxicity, HT1080 expressing low GFP-TS", "format": "cell-based, human", "conditions": "TSL/HT1080, TS Level 409%", "protocol": "Cell lines and transfection. HT1080 cells were grown in PRM11640 medium supplemented with 10% fetal calf serum, and transfected with GFP-TS expression vector. 48 hours after, transfection cells were tripsinized and replated in culture medium containing 750 μg/ml G418. After selection with G418 for two weeks, surviving cells were sorted based upon fluorescence expression. One clone with higher fluorescence expression (named as TSH/HT1080) and one clone with lower fluorescence expression (named as TSL/HT1080) were selected and expanded into cells lines. The stable HT1080 cells transfected with pEGFP-C3 were used as control.\nConstruction of GFP-TS expression vector. […] The cDNA was cloned into HindIII and KpnI sites of mammalian expression vector pEGFP-C3 (Clontech Laboratories. Inc., Palo Alto, Calif.), in-frame with GFP sequence. The cDNA insert was confirmed by DNA sequencing.\nGrowth Inhibition Studies. Cells growing exponentially were transferred to 384-well flat bottom tissue culture plates. All cell types were plated at a density of 500 cells per well in 25 μL of complete medium (RPMI 1640+10% fetal bovine serum+antibiotics/antimycotics). […] After 4 hours incubation at 37° C., fluorescence was monitored at 535 nm excitation and 595 nm emission.\nas §2"}, "[22]": {"test_system": "NPRSC (Prostate) normal cells", "assay": "alamarBlue growth inhibition, NPRSC", "format": "cell-based, human", "conditions": "120 hours", "protocol": "as §1, §2"}},
  "note": "Like-named read-outs stand apart in the source and are kept apart here.",
  "data": [
    {"substance": "5-(2-Bromovinyl)-2′-deoxyuridine phenyl N-methoxy-L-alaninyl phosphoramidate [NB1011]", "values": [
      {"measurement": "IC50", "setting": "[1]", "result": 2.3, "unit": "µM"},
      {"measurement": "IC50", "setting": "[2]", "result": 184, "unit": "µM"},
      {"measurement": "IC50", "setting": "[3]", "result": 492, "unit": "µM"},
      {"measurement": "IC50", "setting": "[4]", "result": 303, "unit": "µM"},
      {"measurement": "IC50", "setting": "[5]", "result": 280, "unit": "µM"},
      {"measurement": "IC50", "setting": "[6]; H630 Colon cancer, Drug Selection 5FU, read-out: NB1011-IC50", "result": 65, "unit": "µM"},
      {"measurement": "NB1011 activity diminished, compared to NB1011 alone", "setting": "[6]; H630R10, in the presence of 3 μM LV, alamarBlue", "result": "more than 90%"},
      {"measurement": "IC50", "setting": "[6]; H630R10, comparison with 5FUdR, read-out: IC50", "result": 217, "unit": "µM"},
      {"measurement": "IC50", "setting": "[6]; Tumor Cells: H630R10 (Colon), alamarBlue, 120 hours, read-out: IC50", "result": 65, "unit": "µM"},
      {"measurement": "IC50", "setting": "[7]", "result": 135, "unit": "µM"},
      {"measurement": "IC50", "setting": "[8]; MCF7 Breast cancer, Drug Selection TDX, read-out: NB1011-IC50", "result": 2.8, "unit": "µM"},
      {"measurement": "IC50", "setting": "[8]; MCF7 TDX, alamarBlue, read-out: IC50", "result": 2, "unit": "µM"},
      {"measurement": "IC50", "setting": "[9]", "result": 365, "unit": "µM"},
      {"measurement": "IC50", "setting": "[10]", "result": 204, "unit": "µM"},
      {"measurement": "IC50", "setting": "[11]", "result": 105, "unit": "µM"},
      {"measurement": "IC50", "setting": "[12]", "result": 494, "unit": "µM"},
      {"measurement": "IC50", "setting": "[13]", "result": 247, "unit": "µM"},
      {"measurement": "IC50", "setting": "[14]", "result": 335, "unit": "µM"},
      {"measurement": "IC50", "setting": "[15]", "result": 28, "unit": "µM"},
      {"measurement": "IC50", "setting": "[16]", "result": 401, "unit": "µM"},
      {"measurement": "improvement in therapeutic index as compared with 5-FU", "setting": "[17]; (2)×(3)", "result": 6, "unit": "fold"},
      {"measurement": "more cytotoxic to tumor cells vs. normal cells", "setting": "[17]; overall, panel", "result": "about 2 fold"},
      {"measurement": "IC50", "setting": "[17]; average of the 11 normal cell types", "result": 561, "unit": "µM"},
      {"measurement": "IC50", "setting": "[17]; average of the 21 tumor cell lines", "result": 288, "unit": "µM"},
      {"measurement": "IC50", "setting": "[18]; Normal Cells: CCD1800 (Colon), alamarBlue, 120 hours", "result": 562, "unit": "µM"},
      {"measurement": "IC50", "setting": "[18]; normal colon epithelial cells (CCD18co), comparison with 5FUdR", "result": "> 2500", "unit": "µM"},
      {"measurement": "IC50", "setting": "[19]", "result": 704, "unit": "µM"},
      {"measurement": "clinical score (disease suppression)", "setting": "[20]", "result": "significant disease suppression"},
      {"measurement": "paw swelling (disease suppression)", "setting": "[20]", "result": "significant disease suppression"},
      {"measurement": "IC50", "setting": "[21]", "result": 196, "unit": "µM"},
      {"measurement": "IC50", "setting": "[22]", "result": 369, "unit": "µM"}
    ]}
  ]
}
